Laboratory results published in ChEMBL document CHEMBL1201862, “PubChem BioAssay data set” (2004).
Activity calls are given as the source filed them. Cut-off read from the data, not from the text of the source, for most assays here: actives have a measured IC50 and inactives only a lower limit.

Columns and labels:
[1] = target: T1, Sentrin-specific protease 7 (Homo sapiens, UniProt Q9BQF6); format: functional;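 note: Luminescence-based dose-response confirmation of ultra-high-throughput screening hits, measuring inhibition of SENP7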
T1 sequence (Q9BQF6 whole entry): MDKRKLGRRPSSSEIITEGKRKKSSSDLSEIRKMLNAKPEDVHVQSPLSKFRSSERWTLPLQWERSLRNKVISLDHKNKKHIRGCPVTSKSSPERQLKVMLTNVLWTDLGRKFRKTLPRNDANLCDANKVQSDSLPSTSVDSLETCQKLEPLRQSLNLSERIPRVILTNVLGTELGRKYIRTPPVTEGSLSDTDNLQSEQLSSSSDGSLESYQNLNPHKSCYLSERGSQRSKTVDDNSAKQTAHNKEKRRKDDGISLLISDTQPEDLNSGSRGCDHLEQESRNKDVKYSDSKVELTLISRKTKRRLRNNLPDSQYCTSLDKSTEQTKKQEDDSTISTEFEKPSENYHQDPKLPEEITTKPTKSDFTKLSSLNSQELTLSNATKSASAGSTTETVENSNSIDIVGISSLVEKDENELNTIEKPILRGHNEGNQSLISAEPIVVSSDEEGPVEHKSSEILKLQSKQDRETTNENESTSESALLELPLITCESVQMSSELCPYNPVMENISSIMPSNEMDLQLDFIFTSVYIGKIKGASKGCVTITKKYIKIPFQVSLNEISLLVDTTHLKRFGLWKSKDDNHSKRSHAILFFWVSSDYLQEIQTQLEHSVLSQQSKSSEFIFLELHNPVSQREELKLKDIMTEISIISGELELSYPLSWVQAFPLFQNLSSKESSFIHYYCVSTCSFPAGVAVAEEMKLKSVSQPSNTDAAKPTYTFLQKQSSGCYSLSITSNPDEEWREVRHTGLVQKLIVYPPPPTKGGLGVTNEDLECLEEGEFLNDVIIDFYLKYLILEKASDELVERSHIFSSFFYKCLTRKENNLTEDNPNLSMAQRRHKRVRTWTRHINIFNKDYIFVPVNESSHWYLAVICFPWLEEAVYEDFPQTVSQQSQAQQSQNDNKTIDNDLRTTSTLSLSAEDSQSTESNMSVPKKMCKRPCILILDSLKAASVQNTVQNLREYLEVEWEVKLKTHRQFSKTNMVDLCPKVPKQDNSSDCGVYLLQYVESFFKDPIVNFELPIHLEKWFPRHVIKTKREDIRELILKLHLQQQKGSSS

[2] = target: Dual specificity tyrosine-phosphorylation-regulated kinase 1A (Rattus norvegicus, UniProt Q63470); format: biochemical, Homo sapiens
[3] = target: T2, Apoptotic protease-activating factor 1 (Homo sapiens, UniProt O14727); format: functional
T2 sequence (O14727 whole entry): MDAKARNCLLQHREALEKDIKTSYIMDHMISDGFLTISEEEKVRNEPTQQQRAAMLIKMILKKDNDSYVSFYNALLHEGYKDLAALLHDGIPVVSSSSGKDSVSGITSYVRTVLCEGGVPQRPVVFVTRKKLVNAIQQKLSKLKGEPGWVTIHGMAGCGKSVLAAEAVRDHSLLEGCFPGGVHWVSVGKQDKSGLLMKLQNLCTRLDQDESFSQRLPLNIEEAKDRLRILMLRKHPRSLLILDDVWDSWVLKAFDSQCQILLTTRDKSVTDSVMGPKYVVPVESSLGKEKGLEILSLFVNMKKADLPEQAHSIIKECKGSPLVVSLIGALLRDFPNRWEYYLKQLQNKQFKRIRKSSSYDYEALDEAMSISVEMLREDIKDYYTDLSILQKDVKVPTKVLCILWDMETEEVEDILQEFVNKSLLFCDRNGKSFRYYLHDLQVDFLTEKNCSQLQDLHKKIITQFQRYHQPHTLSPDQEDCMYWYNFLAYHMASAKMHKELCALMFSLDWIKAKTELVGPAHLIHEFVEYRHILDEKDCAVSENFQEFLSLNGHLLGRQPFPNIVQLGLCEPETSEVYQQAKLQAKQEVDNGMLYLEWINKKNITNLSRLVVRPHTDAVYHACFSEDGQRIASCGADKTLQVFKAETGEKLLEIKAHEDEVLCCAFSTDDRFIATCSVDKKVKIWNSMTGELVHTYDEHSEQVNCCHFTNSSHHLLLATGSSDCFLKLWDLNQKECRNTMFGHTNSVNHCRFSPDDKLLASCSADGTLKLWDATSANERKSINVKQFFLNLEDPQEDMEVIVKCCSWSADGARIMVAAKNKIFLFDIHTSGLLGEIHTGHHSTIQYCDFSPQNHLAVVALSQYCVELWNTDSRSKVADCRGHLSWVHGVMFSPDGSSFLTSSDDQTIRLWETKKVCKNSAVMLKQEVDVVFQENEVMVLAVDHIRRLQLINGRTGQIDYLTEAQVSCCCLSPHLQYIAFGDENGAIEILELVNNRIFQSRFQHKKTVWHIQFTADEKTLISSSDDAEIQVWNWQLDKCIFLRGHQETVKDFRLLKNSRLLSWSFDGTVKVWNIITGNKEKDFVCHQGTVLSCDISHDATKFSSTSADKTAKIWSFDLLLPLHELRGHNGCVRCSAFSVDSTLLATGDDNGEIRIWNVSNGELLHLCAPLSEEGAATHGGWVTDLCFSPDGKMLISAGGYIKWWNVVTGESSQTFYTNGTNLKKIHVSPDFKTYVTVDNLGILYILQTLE

[4] = target: 72 kDa type IV collagenase (Homo sapiens, UniProt P08253); experiment: Dose Response validation of uHTS RPN11 inhibitor hits using a MMP-2 Fluorescence assay.; format: functional
[5] = target: T3, Rac GTPase-activating protein 1 (Homo sapiens, UniProt Q9H0H5); experiment: blockers of MgcRacGAP-driven Rac1 GTP hydrolysis – biochemical, ADP Hunter fluorescence, primary and confirmatory, confirmation (AID 624330); format: functional
T3 sequence (Q9H0H5 whole entry): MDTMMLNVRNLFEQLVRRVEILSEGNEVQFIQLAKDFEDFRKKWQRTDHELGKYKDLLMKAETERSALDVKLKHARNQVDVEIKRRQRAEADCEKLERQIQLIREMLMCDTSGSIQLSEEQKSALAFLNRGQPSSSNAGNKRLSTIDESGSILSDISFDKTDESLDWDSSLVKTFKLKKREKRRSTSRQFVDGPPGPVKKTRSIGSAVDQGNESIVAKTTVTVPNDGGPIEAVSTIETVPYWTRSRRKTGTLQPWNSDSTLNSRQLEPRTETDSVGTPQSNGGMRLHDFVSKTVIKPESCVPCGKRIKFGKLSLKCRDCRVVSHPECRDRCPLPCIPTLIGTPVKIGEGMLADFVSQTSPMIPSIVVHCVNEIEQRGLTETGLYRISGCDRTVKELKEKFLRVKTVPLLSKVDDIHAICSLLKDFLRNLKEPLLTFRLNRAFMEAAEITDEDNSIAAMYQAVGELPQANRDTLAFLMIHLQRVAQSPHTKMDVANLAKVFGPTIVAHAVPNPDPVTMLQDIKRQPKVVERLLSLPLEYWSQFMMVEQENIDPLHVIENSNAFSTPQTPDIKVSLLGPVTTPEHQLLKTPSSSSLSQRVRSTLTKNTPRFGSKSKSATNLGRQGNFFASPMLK

72 kDa type IV collagenase, sequence (P08253 whole entry): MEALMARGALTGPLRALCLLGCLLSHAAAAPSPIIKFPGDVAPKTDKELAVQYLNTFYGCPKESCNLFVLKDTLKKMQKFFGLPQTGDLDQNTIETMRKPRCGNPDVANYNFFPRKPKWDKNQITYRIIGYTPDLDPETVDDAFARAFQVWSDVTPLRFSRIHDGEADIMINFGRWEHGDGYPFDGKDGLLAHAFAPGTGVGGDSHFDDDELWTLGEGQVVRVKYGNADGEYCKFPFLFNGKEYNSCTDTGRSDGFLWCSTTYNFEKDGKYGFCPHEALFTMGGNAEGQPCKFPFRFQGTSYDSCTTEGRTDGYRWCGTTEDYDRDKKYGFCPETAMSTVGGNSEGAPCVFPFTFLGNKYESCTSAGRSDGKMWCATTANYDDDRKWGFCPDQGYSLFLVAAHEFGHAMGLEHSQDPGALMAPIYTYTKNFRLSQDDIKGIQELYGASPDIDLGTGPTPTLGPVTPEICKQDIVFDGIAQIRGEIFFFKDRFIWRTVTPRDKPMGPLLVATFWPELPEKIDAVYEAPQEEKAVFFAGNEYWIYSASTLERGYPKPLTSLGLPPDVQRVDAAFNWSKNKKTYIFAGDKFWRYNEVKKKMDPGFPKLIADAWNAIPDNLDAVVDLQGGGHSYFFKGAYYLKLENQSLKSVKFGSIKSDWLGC

Row | IC50 [1] | AC50 [2] | IC50 [3] | SMILES | IC50 [4] | IC50 [5]
1 | 13.8 µM (active) | 28.1 µM (active) | 4.46 µM (active) | CC(=O)N(/N=C1\Sc2ccccc2C1=O)c1cccc(C)c1 | – | –
2 | – | – | – | O=[N+]([O-])c1ccc(N/N=C/c2ccc[nH]2)cc1 | 70.3 µM (active) | 44.5 µM (active)
